Data taken from patent US10251902B2, “Pharmaceutical composition for treating or preventing neuropsychiatric disease, containing flavone-6-C-glucose derivatives as active ingredients” (priority 2013, dated 2019).

Legend:
Assay type in all cases: in vivo, ICR mice
[1] = tested on: mouse model of stroke; assay: Y-maze test in mouse model of stroke; settings: for Alternation Behavior (%): Table 11, test on 7th day; for Total Entry: Table 12
Protocol: (§1) Seven-week old ICR mice in about 30 g to 35 g (Orientbio Inc, Republic of Korea) were received water and feed without constraint and adapted for 5 days under an environment having about 23±1° C. of temperature, about 60±10% of humidity and 12-hour light/dark cycle (animal laboratory at College of Pharmacy, Kyung-Hee University), and then used for the experiment.
(§2) The laboratory animal in 1) was located in an operating room, adapted for 60 minutes, and anesthetized in a space providing anaesthetic gasses (nitrous oxide: 70%; oxygen: 30%; isoflurane: 2.0%). Pain reflex was examined to confirm the anesthesia. The laboratory animal was lain down straight on an operating table, and fixed its upper limb and head. Skin from the spot, where the upper limb and the center line meet, was incised as 1.5 cm to expose the both common carotid arteries by using tweezers while not damaging the tissues. Tissues and nerves attached to the exposed carotid arteries were separated and fixed with an aneurysm clip. The clip was removed after 15 minutes and reperfused, and the incised area was sutured with sutures. After the suture, the laboratory animal was immediately moved to a recovery room (32-33° C., O2 enrichment condition) and kept until it recovers from anesthesia. Observation on its weight and status was conducted once a day for 4 days after the operation.
Administration of the Swertia japonica extract prepared in Example 1 was initiated to the mice prepared in the 1) immediately after the operation 3), and kept administering at the same time for 7 days. Five groups (5 mice per each group) were prepared as drug administration groups 1, 2 and 3, wherein the Swertia japonica extract prepared in Example 1 was administered thereto; and controls 1 and 2. 50 mg/kg, 100 mg/kg and 200 mg/kg of the Swertia japonica extract was administered to the drug administration groups 1, 2 and 3 respectively; and 0.15 mL of Tween 80 was administered to the controls 1 and 2 respectively. At the 7th day from the initial administration, the Y-maze test was conducted for the drug administration groups 1 to 3 and the controls 1 to 2 in the same manner as Experimental Example 1-5.
After 60 minutes, mice of the drug administration groups 1-3 and the controls 1-2 were carefully located on each branches of the Y-maze, which was divided as A, B and C respectively, and let the mice move freely for 8 minutes, and then recorded branches that mice have entered. The entrance was recorded when the entire body (i.e. including the tail) has completely entered. It was also recorded when the mice entered again into the branch that the mice have entered before. The result was converted into % via Equation 1.
Administration of swertisin prepared in Example 3 was initiated to the mice prepared in 1) immediately after the operation 3), and kept administering at the same time for 7 days. Five groups (5 mice per each group) were prepared as drug administration groups 1, 2 and 3, wherein swertisin prepared in Example 3 was administered thereto; and controls 1 and 2. 50 mg/kg, 100 mg/kg and 200 mg/kg of swertisin was administered to the drug administration groups 1, 2 and 3 respectively; and 0.15 mL of Tween 80 was administered to the controls 1 and 2 respectively. At the 7th day from the initial administration, the Y-maze test was conducted for the drug administration groups 1 to 3 and the controls 1 to 2 in the same manner as Experimental Example 1.

[2] = tested on: brain cells in the hippocampal region, mouse model of stroke; assay: Neurological scoring of hippocampal brain cell damage (Nissl staining) in mouse model of stroke; settings: for Neurological Score: Table 13, score 0-3 points of hippocampal damage
Protocol: as §1, §2
Meanwhile, upon termination of the Y-maze test, a 4% paraformaldehyde fixation was conducted on the drug administration groups 1-3 and the control 2, and brain was excised. Paraformaldehyde-fixed brain sample was washed and section having 30 μm of thickness was prepared therefrom. The Nissl staining, which can stain a native region of brain cells in normal status, was performed. Brain cell damage in the hippocampal region of the drug administration groups 1-3, wherein the Swertia japonica extract prepared in Example 1 was administered, and the controls 1 and 2 was assessed through a neurological scoring. Pertaining to the evaluation standard, 0 point was scored when there was no damage on the hippocampal region; 1 point for 0-30% of damage; 2 points for 30-60% of damage; and 3 points for 60-100% of damage. The points were scored by 3 people who have no knowledge of the drug administration groups and the controls. Average point was used to calculate the degree of damage.
Upon termination of the Y-maze test, the drug administration groups 1-3 and the control 2 were sacrificed to prepare the brain section, and the Nissl staining was conducted to evaluate brain cell damage in the hippocampal region of the drug administration groups 1-3, wherein swertisin prepared in Example 3 was administered, and the controls 1 and 2 through the neurological scoring.

[3] = tested on: pentobarbital-induced sleep; assay: Sleep-inducing test (pentobarbital); settings: swertisin 10 mg/kg
Protocol: as §1, with “Six-week” for “Seven-week”, “26” for “30”, “28” for “35”, “experiment. Foods were blocked at 24 hours before the test.” for “experiment.”
The mice prepared in 1) were divided into […] (10 mice per each group) including the drug administration group 1, wherein swertisin was administered, and the controls 1 and 2. Swertisin prepared in Example 3 was dissolved in 10% Tween 80 (Polyoxyethylene sorbitan monooleate: Sigma, U.S.A.) and administered to the drug administration group 1 in an amount of 10 mg/kg. Meanwhile, 0.15 mL of 10% Tween 80 was administered to the control 1.
After 1 hour of administration, pentobarbital was dissolved in a saline solution and intraperitoneally administered to the mouse in an amount of 60 mg/kg. The mouse was located in the cage. At this time, straw was laid in the cage only enough to cover the floor, and only one mouse was located in the cage for observation. […]

[4] = swertisin 50 mg/kg for 7 days after stroke operation
[5] = swertisin 100 mg/kg for 7 days after stroke operation
[6] = swertisin 200 mg/kg for 7 days after stroke operation

## COc1cc2oc(-c3ccc(O)cc3)cc(=O)c2c(O)c1[C@@H]1O[C@H](CO)[C@@H](O)[C@H](O)[C@H]1O [swertisin]
[1]; [4]
  Alternation Behavior (%): 56.10 ± 7.431%
  Total Entry: 24.14 ± 2.478
[1]; [5]
  Alternation Behavior (%): 57.58 ± 12.86%
  Total Entry: 28.50 ± 6.364
[1]; [6]
  Alternation Behavior (%): 70.46 ± 15.74%
  Total Entry: 22.00 ± 5.958
[2]; swertisin 50 mg/kg for 7 days
  Neurological Score: 1.8130 ± 0.3750
[2]; swertisin 100 mg/kg for 7 days
  Neurological Score: 1.2500 ± 0.2500
[2]; swertisin 200 mg/kg for 7 days
  Neurological Score: 1.1670 ± 0.5204
[2]; swertisin 200 mg/kg (drug administration group 3) versus stroke-induced group
  neurological score, in words: significant result to the stroke-induced group
[3]; pentobarbital 60 mg/kg i.p.
  total sleep time compared to the control 1, in words: remarkably decreased
[3]; pentobarbital 60 mg/kg i.p. 1 hour after administration
  Total Sleep Time: 94.47 ± 21.83 min
